Laboratory results published in patent US20210255184A1, “Biosensor Device and Methods” (The New Zealand Institute for Plant and Food Research …, priority 2018, published 2021).

Target: T1, Or22a/Orco (Drosophila melanogaster, UniProt P81909)
T1 construct: his-tag; made in house; host or cells: baculovirus-infected Sf9 cells
T1 sequence (P81909 1-397): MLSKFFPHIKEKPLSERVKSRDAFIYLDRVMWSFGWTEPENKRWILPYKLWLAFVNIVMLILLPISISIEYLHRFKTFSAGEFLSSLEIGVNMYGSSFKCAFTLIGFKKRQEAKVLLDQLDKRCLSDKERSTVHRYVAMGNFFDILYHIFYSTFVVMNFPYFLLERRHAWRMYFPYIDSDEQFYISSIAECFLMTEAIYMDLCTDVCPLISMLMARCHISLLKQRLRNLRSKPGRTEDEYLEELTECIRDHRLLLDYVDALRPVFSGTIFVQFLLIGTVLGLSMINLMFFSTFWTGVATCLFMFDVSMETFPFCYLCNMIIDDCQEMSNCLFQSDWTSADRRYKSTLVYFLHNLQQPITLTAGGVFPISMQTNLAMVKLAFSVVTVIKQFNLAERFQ
T1 sequence (Q9VNB5 1-486 partner): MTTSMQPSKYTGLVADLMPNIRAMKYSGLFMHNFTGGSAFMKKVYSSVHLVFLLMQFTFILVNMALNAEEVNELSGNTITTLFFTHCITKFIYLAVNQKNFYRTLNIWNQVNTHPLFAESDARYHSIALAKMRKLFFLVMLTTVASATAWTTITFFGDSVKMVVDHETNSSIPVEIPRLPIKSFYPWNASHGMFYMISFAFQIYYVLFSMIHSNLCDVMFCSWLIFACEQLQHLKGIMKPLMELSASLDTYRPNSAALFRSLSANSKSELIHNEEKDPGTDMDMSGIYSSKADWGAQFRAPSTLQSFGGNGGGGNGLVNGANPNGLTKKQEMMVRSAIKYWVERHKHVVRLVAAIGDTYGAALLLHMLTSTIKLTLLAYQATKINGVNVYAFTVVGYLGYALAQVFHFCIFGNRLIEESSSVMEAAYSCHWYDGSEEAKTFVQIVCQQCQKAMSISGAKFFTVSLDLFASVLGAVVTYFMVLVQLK
Experiment: EIS sensor, Or22a/Orco liposomes on gold electrode
Format: biochemical
Experimental: Prior to their use, liposomes were defrosted on ice and then destabilized by incubating with 0.2% CHAPS for 15 min at room temperature. Then 200 μg of purified odorant receptor^28 was added to 1 mg of liposomes and rotated at 10 rpm for 1 h at room temperature. Excess detergent was removed by four additions of 25 mg of Bio-Beads SM-2 (Bio-Rad, USA) and incubation at 4° C. for 30 min, 2 h, overnight and a further 2 h respectively. The Bio-Beads were removed after each incubation period. The OrX or OrX/Orco integrated liposomes were pelleted by centrifugation at 100,000 g for 1 h, and were resuspended in 500 μL of rehydration buffer. Integration of OrXs and Orco into liposomes was assessed by density gradient ultracentrifugation (DGU) using Accudenz (Accurate Chemical & Scientific Corporation, USA). The integrated liposomes were brought to 40% Accudenz by the addition of an equal volume of 80% Accudenz solution, placed at the bottom of an ultra-centrifugation tube, and overlaid with 30% Accudenz solution, and DGU buffer (25 mM HEPES pH 7.5, 100 mM NaCl, 10% glycerol). The sample was then centrifuged at 100,000 g for 4 h at 4° C. Liposomes will float to the top of the gradient after Accudenz DGU due to their low density.
2 mM MHA was prepared by dissolving 1.36 μl of MHA in 5 ml ethanol (AR grade). The cleaned electrodes were immersed into MHA solution and incubated overnight. The next day, all the electrodes were washed with ethanol and deionised water thoroughly in order to remove the unreacted acid. A 2:1 mol:mol ratio of EDC:NHS (100 mM EDC, 50 mM NHS) was prepared in 2 ml PBS (pH=6.5) solution. Then, the electrodes were covered in 100 μl of this solution at 28° C. for an hour to activate the carboxylic (COOH) groups of the MHA.
PBS solution was prepared by immersing one tablet of PBS in 200 ml of milli-Q water (according to manufacturers instructions) and filtered using 0.2-μm syringe filter. The pH of the prepared buffer solution was measured with a pH meter. […]

CCCCCC(=O)OC [methyl hexanoate]
limit of detection (EIS dose response, ligand 1 aM to 100 μM): 0.1 fM
Sensitivity limit (Table 1, * estimated visually from dose response graph): ~10^−16 M*
Detection Range (Table 3): 10^−16-10^−5 M
